The record followed here is ChEMBL document CHEMBL3045969, “Synthesis and evaluation of some new 4-aminopyridine derivatives as a potent antiamnesic and cognition enhancing drugs” (Med Chem Res, 2012).

The test system of series [1] is Rattus norvegicus. Put plainly: Inhibition of AChE in po dosed Charles Foster albino Rattus norvegicus (rat) assessed as hydrolysis of acetylthiocholine iodide per mg of protein in hippocampus administered po qd for 7 days measured 1 hr post last dose on day 7 by spectrophotometry (reference value: […]/mg protein). In kind it is functional, organism-based.

Series [2] deals with Rattus norvegicus. Put plainly: Inhibition of AChE in po dosed Charles Foster albino Rattus norvegicus (rat) assessed as hydrolysis of acetylthiocholine iodide per mg of protein in prefrontal cortex administered qd for 7 days measured 1 hr post last dose on day 7 by spectrophotometry (reference value: 45.83 +/-0.94 moles/min/mg protein). Format: functional, organism-based.
The subject of series [3] is Rattus norvegicus. The experiment in a line: Inhibition of AChE in Charles Foster albino Rattus norvegicus (rat) assessed as hydrolysis of acetylthiocholine iodide per mg of protein in hypothalamus at 10 mg/kg, po qd for 7 days measured 1 hr post last dose on day 7 by spectrophotometry (reference value: […]/mg protein). Format: functional.
In series [4] the test system is Rattus norvegicus. The experiment in a line: Inhibition of AChE in Charles Foster albino Rattus norvegicus (rat) assessed as hydrolysis of acetylthiocholine iodide per mg of protein in hippocampus at 10 mg/kg, po qd for 7 days measured 1 hr post last dose on day 7 by spectrophotometry (reference value: […]/mg protein). Format: functional.
Series [5] concerns Rattus norvegicus. The experiment in a line: Inhibition of AChE in Charles Foster albino Rattus norvegicus (rat) assessed as hydrolysis of acetylthiocholine iodide per mg of protein in prefrontal cortex at 10 mg/kg, po qd for 7 days measured 1 hr post last dose on day 7 by spectrophotometry (reference value: […]/mg protein). Format: functional.
In series [6] the test system is Rattus norvegicus. Put plainly: Inhibition of AChE in po dosed Charles Foster albino Rattus norvegicus (rat) assessed as hydrolysis of acetylthiocholine iodide per mg of protein in hypothalamus administered qd for 7 days measured 1 hr post last dose on day 7 by spectrophotometry (reference value: […]/mg protein). In kind it is functional, organism-based.

For series [7], the system named is Rattus norvegicus. Put plainly: Inhibition of AChE in Charles Foster albino Rattus norvegicus (rat) assessed as hydrolysis of acetylthiocholine iodide per mg of protein in hypothalamus at 5 mg/kg, po qd for 7 days measured 1 hr post last dose on day 7 by spectrophotometry (reference value: […]/mg protein). Format: functional.
The subject of series [8] is Rattus norvegicus. The experiment in a line: Inhibition of AChE in Charles Foster albino Rattus norvegicus (rat) assessed as hydrolysis of acetylthiocholine iodide per mg of protein in hippocampus at 5 mg/kg, po qd for 7 days measured 1 hr post last dose on day 7 by spectrophotometry (reference value: […]/mg protein). Format: functional.
Series [9] deals with Rattus norvegicus. The experiment in a line: Inhibition of AChE in Charles Foster albino Rattus norvegicus (rat) assessed as hydrolysis of acetylthiocholine iodide per mg of protein in prefrontal cortex at 5 mg/kg, po qd for 7 days measured 1 hr post last dose on day 7 by spectrophotometry (reference value: […]/mg protein). In kind it is functional.
Series [10] concerns Rattus norvegicus. Put plainly: Antiamnesic activity in po dosed scopolamine-induced amnesia Charles Foster albino Rattus norvegicus (rat) model assessed as transfer latency time administered once daily for 8 days measured 1 hr post last dose on day 8 by elevated plus maze test. Format: functional, organism-based.
Series [11] has as its system Rattus norvegicus. Put plainly: Acute toxicity in Charles Foster albino Rattus norvegicus (rat) assessed as mortality at >35 mg/kg of body weight, po measured up to 24 hr. In kind it is organism-based. The note with it: in vivo.
In series [12] the test system is Rattus norvegicus. Put plainly: Antiamnesic activity in scopolamine-induced amnesia Charles Foster albino Rattus norvegicus (rat) model assessed as transfer latency time at 10 mg/kg, po qd for 8 days measured 1 hr post last dose on day 8 by elevated plus maze test. In kind it is functional.
For series [13], the system named is Rattus norvegicus. Put plainly: Antiamnesic activity in scopolamine-induced amnesia Charles Foster albino Rattus norvegicus (rat) model assessed as transfer latency time at 5 mg/kg, po qd for 8 days measured 1 hr post last dose on day 8 by elevated plus maze test. In kind it is functional.
The subject of series [14] is Rattus norvegicus. Put plainly: Cognition enhancing activity in Charles Foster albino Rattus norvegicus (rat) assessed as transfer latency time at 10 mg/kg, po qd for 8 days measured 1 hr post last dose on day 8 by elevated plus maze test. In kind it is functional.
For series [15], the system named is Rattus norvegicus. Put plainly: Antiamnesic activity in scopolamine-induced amnesia Charles Foster albino Rattus norvegicus (rat) model assessed as transfer latency time at 10 mg/kg, po qd for 7 days measured 1 hr post last dose on day 7 by elevated plus maze test. In kind it is functional.
In series [16] the test system is Rattus norvegicus. Put plainly: Antiamnesic activity in scopolamine-induced amnesia Charles Foster albino Rattus norvegicus (rat) model assessed as transfer latency time at 5 mg/kg, po qd for 7 days measured 1 hr post last dose on day 7 by elevated plus maze test. In kind it is functional.
In series [17] the test system is Rattus norvegicus. Put plainly: Cognition enhancing activity in Charles Foster albino Rattus norvegicus (rat) assessed as transfer latency time at 10 mg/kg, po qd for 7 days measured 1 hr post last dose on day 7 by elevated plus maze test. In kind it is functional.
Series [18] has as its system Rattus norvegicus. The experiment in a line: Cognition enhancing activity in Charles Foster albino Rattus norvegicus (rat) assessed as transfer latency time at 5 mg/kg, po qd for 7 days measured 1 hr post last dose on day 7 by elevated plus maze test. Format: functional.
For series [19], the system named is Rattus norvegicus. Put plainly: Cognition enhancing activity in Charles Foster albino Rattus norvegicus (rat) assessed as transfer latency time at 5 mg/kg, po qd for 8 days measured 1 hr post last dose on day 8 by elevated plus maze test. Format: functional.

On to `COc1ccc(/C=N\c2ccncc2)cc1OC`, for which the inhibition entry in the series with Rattus norvegicus [1], in the series with Rattus norvegicus [2] and in the series on Rattus norvegicus [6] was “Dose-dependent effect” throughout. For the same molecule, the Activity was 30.5 nmol/min in the series with Rattus norvegicus [3]; 35.83 nmol/min in the series with Rattus norvegicus [4]; 33.17 nmol/min with Rattus norvegicus [5]; 35.5 nmol/min with Rattus norvegicus [7]; 41.17 nmol/min with Rattus norvegicus [8]; 36.5 nmol/min in the series with Rattus norvegicus [9]. For the same molecule, the figures for the Activity result in the series with Rattus norvegicus [10] and with Rattus norvegicus [11] were “Dose-dependent effect” and “Non-toxic”, respectively. Moreover, the Time with Rattus norvegicus [12] is reported as 42.5 s; in the series with Rattus norvegicus [13] it was 50.67 s; in the series with Rattus norvegicus [14], 47.5 s; with Rattus norvegicus [15] it was 48.5 s; in the series on Rattus norvegicus [16], 53.83 s; in the series on Rattus norvegicus [17], 53 s. Moreover, the Time was determined as 58 s in the series on Rattus norvegicus [18] and 50.33 s with Rattus norvegicus [19].

As to `COc1ccc(/C=N\c2ccncc2)cc1`, the inhibition result in the series on Rattus norvegicus [1], with Rattus norvegicus [2] and with Rattus norvegicus [6] was “Dose-dependent effect” throughout. Also, the Activity with Rattus norvegicus [3] turned out to be 30.83 nmol/min; with Rattus norvegicus [4], 36.5 nmol/min; in the series with Rattus norvegicus [5] it was 31 nmol/min; with Rattus norvegicus [7], 35.67 nmol/min; in the series on Rattus norvegicus [8] it was 41.5 nmol/min; in the series on Rattus norvegicus [9], 36 nmol/min. Besides, the Activity entry is “Dose-dependent effect” in the series with Rattus norvegicus [10] and “Non-toxic” with Rattus norvegicus [11]. Moreover, the Time is on record as 43.17 s in the series with Rattus norvegicus [12]; 50.83 s in the series with Rattus norvegicus [13]; 46.33 s in the series with Rattus norvegicus [14]; 48.67 s with Rattus norvegicus [15]; 52 s in the series with Rattus norvegicus [16]; 52.67 s in the series with Rattus norvegicus [17]. The Time in the series on Rattus norvegicus [18] is 57.83 s; in the series on Rattus norvegicus [19], 49.5 s.

For `Oc1ccc(/C=N\c2ccncc2)c(O)c1`, the inhibition entry in the series on Rattus norvegicus [1], with Rattus norvegicus [2] and in the series on Rattus norvegicus [6] was “Dose-dependent effect” throughout. Moreover, the Activity is 30 nmol/min in the series with Rattus norvegicus [3]; 34.83 nmol/min in the series with Rattus norvegicus [4]; 30.5 nmol/min in the series on Rattus norvegicus [5]; 34.5 nmol/min in the series with Rattus norvegicus [7]; 42.83 nmol/min with Rattus norvegicus [8]; 41 nmol/min in the series with Rattus norvegicus [9]. Besides, the Activity result was “Dose-dependent effect” with Rattus norvegicus [10] and “Non-toxic” in the series with Rattus norvegicus [11]. The Time was determined as 43 s in the series with Rattus norvegicus [12]; 51.67 s in the series with Rattus norvegicus [13]; 48.67 s with Rattus norvegicus [14]; 46.5 s in the series on Rattus norvegicus [15]; 51.67 s in the series with Rattus norvegicus [16]; 52.5 s in the series on Rattus norvegicus [17]. The Time in the series with Rattus norvegicus [18] amounted to 60.33 s; with Rattus norvegicus [19], 51.17 s.

`Oc1ccccc1/C=N\c1ccncc1`: the inhibition entry in the series with Rattus norvegicus [1], in the series with Rattus norvegicus [2] and with Rattus norvegicus [6] was “Dose-dependent effect” each time. Also, the Activity was 30.5 nmol/min in the series with Rattus norvegicus [3]; 36.83 nmol/min in the series on Rattus norvegicus [4]; 33 nmol/min with Rattus norvegicus [5]; 34.33 nmol/min in the series on Rattus norvegicus [7]; 41.83 nmol/min in the series on Rattus norvegicus [8]; 37.5 nmol/min with Rattus norvegicus [9]. For the same molecule, the Activity result in the series on Rattus norvegicus [10] is “Dose-dependent effect”; in the series with Rattus norvegicus [11] it was “Non-toxic”. The Time is 42.5 s in the series on Rattus norvegicus [12]; 50.17 s with Rattus norvegicus [13]; 42.5 s with Rattus norvegicus [14]; 48.17 s in the series on Rattus norvegicus [15]; 53.5 s in the series with Rattus norvegicus [16]; 52.17 s with Rattus norvegicus [17]. The Time is on record as 59.83 s with Rattus norvegicus [18] and 50.17 s with Rattus norvegicus [19].

As for `C(=N/c1ccncc1)/c1ccccc1`, the inhibition result in the series on Rattus norvegicus [1], in the series with Rattus norvegicus [2] and in the series with Rattus norvegicus [6] was “Dose-dependent effect” in each case. The Activity with Rattus norvegicus [3] is 35.5 nmol/min; in the series with Rattus norvegicus [4], 36.83 nmol/min; in the series with Rattus norvegicus [5] it was 33.83 nmol/min; in the series with Rattus norvegicus [7], 29.33 nmol/min; in the series with Rattus norvegicus [8], 43.83 nmol/min; with Rattus norvegicus [9], 39 nmol/min. The figures for the Activity entry with Rattus norvegicus [10] and with Rattus norvegicus [11] were “Dose-dependent effect” and “Non-toxic”, respectively. Further, the Time was found to be 42.67 s with Rattus norvegicus [12]; 51.5 s in the series on Rattus norvegicus [13]; 47.17 s with Rattus norvegicus [14]; 48.83 s with Rattus norvegicus [15]; 53.83 s in the series on Rattus norvegicus [16]; 52.5 s in the series with Rattus norvegicus [17]. The Time in the series with Rattus norvegicus [18] amounted to 59.67 s; in the series on Rattus norvegicus [19] it was 51.83 s.

Regarding `C/C(=N/c1ccncc1)c1ccc(O)cc1`, the inhibition result in the series with Rattus norvegicus [1], with Rattus norvegicus [2] and with Rattus norvegicus [6] was “Dose-dependent effect” throughout. Also, the Activity is 29.67 nmol/min with Rattus norvegicus [3]; 36.5 nmol/min in the series on Rattus norvegicus [4]; 33 nmol/min in the series on Rattus norvegicus [5]; 35.17 nmol/min in the series on Rattus norvegicus [7]; 40.5 nmol/min in the series with Rattus norvegicus [8]; 39.33 nmol/min in the series with Rattus norvegicus [9]. Further, the Activity result in the series on Rattus norvegicus [10] is “Dose-dependent effect”; with Rattus norvegicus [11] it was “Non-toxic”. Further, the Time is recorded as 41.67 s in the series with Rattus norvegicus [12]; 50.67 s in the series with Rattus norvegicus [13]; 46.83 s in the series with Rattus norvegicus [14]; 47 s in the series on Rattus norvegicus [15]; 53.17 s with Rattus norvegicus [16]; 50.83 s with Rattus norvegicus [17]. The Time with Rattus norvegicus [18] was 59.83 s; in the series on Rattus norvegicus [19] it was 56.17 s.

With `c1ccc(C(=Nc2ccncc2)c2ccccc2)cc1`, the inhibition result in the series with Rattus norvegicus [1], in the series on Rattus norvegicus [2] and with Rattus norvegicus [6] was “Dose-dependent effect” each time. For the same molecule, the Activity in the series on Rattus norvegicus [3] came out at 29.67 nmol/min; with Rattus norvegicus [4] it was 37.5 nmol/min; in the series on Rattus norvegicus [5], 32.83 nmol/min; with Rattus norvegicus [7], 34.67 nmol/min; in the series with Rattus norvegicus [8], 42.17 nmol/min; in the series on Rattus norvegicus [9] it was 37 nmol/min. Also, the Activity entry in the series with Rattus norvegicus [10] is “Dose-dependent effect”; with Rattus norvegicus [11] it was “Non-toxic”. The Time in the series with Rattus norvegicus [12] is recorded as 41.17 s; with Rattus norvegicus [13] it was 41.83 s; in the series on Rattus norvegicus [14], 40.17 s; in the series on Rattus norvegicus [15], 45.67 s; with Rattus norvegicus [16] it was 46.83 s; in the series with Rattus norvegicus [17], 46.83 s. In addition, the Time was determined as 49.17 s in the series on Rattus norvegicus [18] and 44 s in the series on Rattus norvegicus [19].
